# Key:
# pig tracheal mucosa = assay: Short circuit current (Isc) and conductance, Ussing chamber, pig; settings: WT pigs; 30 min single agonist then 30 min combined
# From the text: (§1) FIG. 4. Combined agonists inhibit sodium absorption and stimulate anion secretion by surface epithelia. (A) Cartoon of two electrogenic, ion transport pathways across airway apical epithelium: anion secretion increases surface fluid, Na+ absorption decreases surface fluid. The two pathways have opposite effects on fluid depth, but additive effects on short circuit current (Isc) because of their opposite valence and transport directions. (B) Raw trace of Isc across pig tracheal epithelium using Chart 4 software. After reaching a stable, unstimulated Isc (here, >2 h post-mounting), 10 μM forskolin, 0.3 μM carbachol, 10 μM benzamil, 20 μM benzopyrimido-pyrrolo-oxazinedione (BPO-27) and 200 μM niflumic acid were sequentially added at times shown. (C, D) Pig tracheal mucosa: averaged Δ Isc plots over time in response to (C) forskolin alone followed by forskolin+carbachol and (D) reversed order of agonist addition. (E & F) Ferret tracheal mucosa: averaged A Isc plots with same protocol as for pigs. Pig traces (C, D) are based on 10-12 experiments with tissues from 6 to 7 pigs. Ferret traces (E, F) are from 7 experiments with tissues from 5 ferrets.
# Combined agonists stimulate epithelial surface anion secretion and inhibit Na^+ absorption. The surface epithelia also modify ASL. FIG. 4A is a cartoon of the main ion flows controlling ASL depth: anion-mediated fluid secretion increases, and Na^+-mediated fluid absorption decreases ASL depth. It was hypothesized that the combined agonists increase ASL depth and thus MCCV by stimulating secretion and inhibiting absorption (see also FIG. 6). […] With no counterbalancing absorption ASL depth is predicted to increase (dotted gold line in FIG. 6A) unless MCCV increases.
# Inhibiting Na+ absorption would increase net fluid accumulation on the surface. […]
# (§2) Electrophysiology. […] Total tissue conductance was calculated by applying Ohm's law to the Isc deflection resulting from a 1 mV pulse across the tissues every 20 s during the experiment. […]
# ferret tracheal mucosa = assay: Short circuit current (Isc), Ussing chamber, ferret; settings: WT ferrets; 30 min single agonist then 30 min combined
# From the text: as §1, with “ferrets. […]” for “ferrets.”
# as §2
structure (smiles),measurement,setting,value
C[N+](C)(C)CCOC(N)=O [carbachol],"ΔIsc, summary plots",pig tracheal mucosa,decreased directly or after a transient increase
same,"ΔIsc, summary plots",ferret tracheal mucosa,decreased directly or after a transient increase
